Like-named read-outs stand apart in the source and are kept apart here. Starred links: 1 amine or outer side, 2 acyl side, 3 side chain; linkers in the order of their positions; H or OH if unused. Non-standard residues stand in square brackets, D forms with d. Residues, ends and D or L forms follow the SMILES beside them. Groups on a side chain read outwards from the residue. *: point of attachment. C18 diacid = O=C(O)CCCCCCCCCCCCCCCCC(=O)*; γGlu = O=C(O)[C@H](CCC(=O)[*:2])N[*:1]; Palmitoyl = CCCCCCCCCCCCCCCC(=O)*; AEEA = NCCOCCOCC(=O)O; Aib = CC(C)(N)C(=O)O
Key:
human CRF2α receptor = target: T1, human CRF2α receptor (Homo sapiens, UniProt Q13324); experiment: cAMP agonism at human CRF2 α receptor in TeloHEAC cells (Example 7); format: cell-based; conditions: cAMP HTRF, TeloHEAC cells stably expressing human CRF2 α
T1 construct: expressed in transfected cells; host or cells: TeloHEAC
T1 sequence (Q13324 1-411): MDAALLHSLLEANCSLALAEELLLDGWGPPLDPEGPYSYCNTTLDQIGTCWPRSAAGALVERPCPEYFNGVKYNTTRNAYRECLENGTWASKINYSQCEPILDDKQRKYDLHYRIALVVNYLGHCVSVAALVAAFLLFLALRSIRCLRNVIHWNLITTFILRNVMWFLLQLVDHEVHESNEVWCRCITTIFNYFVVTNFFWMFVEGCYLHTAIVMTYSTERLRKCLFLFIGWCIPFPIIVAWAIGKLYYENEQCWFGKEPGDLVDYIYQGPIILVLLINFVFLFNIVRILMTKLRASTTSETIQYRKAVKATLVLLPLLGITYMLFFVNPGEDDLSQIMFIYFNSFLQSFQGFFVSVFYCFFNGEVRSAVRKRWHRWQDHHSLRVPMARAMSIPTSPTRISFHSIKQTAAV
Summary of the method: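 Cryopreserved cells are thawed, washed and resuspended in IBMX-containing (2 mM) HEPES-buffered HBSS with or without 0.1% HSA. Compound incubation runs 30 min at room temperature with 2000 cells per well, then cAMP is measured by time-resolved FRET. Potency is expressed as EC50, efficacy relative to urocortin 2 at 1000 nM.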

[1] = Solubility in buffer systems by UPLC-UV (Example 13); format: physicochemical; conditions: pH 4.5, Solubility in Buffer B [mg/ml]
Procedure: Prior to performing the solubility measurements, the purity of the compounds was determined through UPLC/MS. […] Therefore, solutions from solid samples were prepared in a buffer system with a concentration of 10 mg/mL compound based on the previously determined % purity.
UPLC-UV was performed after 1 hour of gentle agitation from the supernatant, which was obtained after 15 minutes of centrifugation at 2500 RCF (relative centrifugal acceleration). The solubility was determined by the comparison of the UV peak area of a 2 μL-injection of a buffered sample diluted 1:10 with a standard curve of a reference compound with known concentration. The different UV extinction coefficients of sample and reference compound were calculated based on the different amino acid sequences and considered in the concentration calculation.

rat CRF2R α receptor = experiment: cAMP agonism at rat CRF2R α receptor in A7R5 rat aortic smooth muscle cells (Example 8); format: cell-based; conditions: cAMP HTRF, A7R5 rat aortic smooth muscle cell line, 0% HSA
Summary of the method: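 Thawed cryopreserved A7R5 cells in HBSS/20 mM HEPES (0 or 0.1% HSA) with 2 mM IBMX, 2000 cells/well, were exposed to compound for 30 min at room temperature. cAMP was read by HTRF (665/620 nm ratio) after 1 h with lysis reagents. Activity was normalised to 1000 nM urocortin 2 as 100%, and EC50 was taken as the concentration giving 50% of maximal activation.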

CRF1R receptor = target: T2, CRF1R receptor (Homo sapiens, UniProt P34998); experiment: cAMP activity at anti-target CRF1R, CRF1R-overexpression CHO cell line (Example 9); format: cell-based; conditions: CRF1R-overexpression CHO cell line; for EC50: 0% HSA; for Emax: read-out: Emax (%)
T2 construct: host or cells: CHO-K1 clone 2
T2 sequence (P34998 24-415): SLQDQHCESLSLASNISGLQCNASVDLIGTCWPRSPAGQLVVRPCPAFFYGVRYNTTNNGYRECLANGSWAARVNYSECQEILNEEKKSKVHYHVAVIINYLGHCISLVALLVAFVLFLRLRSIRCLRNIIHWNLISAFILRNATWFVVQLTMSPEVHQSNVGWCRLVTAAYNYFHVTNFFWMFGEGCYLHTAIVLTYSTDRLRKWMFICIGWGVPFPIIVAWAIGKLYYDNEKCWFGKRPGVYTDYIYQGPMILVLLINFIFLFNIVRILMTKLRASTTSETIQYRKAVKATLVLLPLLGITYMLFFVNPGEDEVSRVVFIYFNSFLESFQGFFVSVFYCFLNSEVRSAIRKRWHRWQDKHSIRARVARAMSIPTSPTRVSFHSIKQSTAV
Summary of the method: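 cAMP accumulation was read by HTRF after 30 min at room temperature of compound treatment. Cells were cryopreserved CHO cells overexpressing CRF1R, plated at 2000/well in IBMX (2 mM)-containing HBSS/HEPES buffer with 0 or 0.1% HSA. Activity was normalized to 1000 nM UCN2 as 100%.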

[2] = 0% HSA, read-out: EC50 [nM], 0% HSA
[3] = 0.1% HSA, read-out: EC50 [nM], 0.1% HSA

| Structure (SMILES) | EC50 (human CRF2α receptor; [2]) | EC50 (human CRF2α receptor; [3]) | solubility at 1 h [1] | EC50 (rat CRF2R α receptor) | EC50 (CRF1R receptor) | Emax (CRF1R receptor) |
| --- | --- | --- | --- | --- | --- | --- |
| CCCCCCCCCCCCCCCC(=O)N[C@@H](CCC(=O)NCCCC[C@H](NC(=O)[C@H](CC(C)C)NC(=O)[C@H](CCCCN)NC(=O)[C@@H](NC(=O)[C@@H]1CCCN1C(=O)[C@@H](NC(=O)[C@H](CC(=O)O)NC(=O)[C@H](CC(C)C)NC(=O)[C@H](CO)NC(=O)[C@H](CC(C)C)NC(=O)[C@@H](NC(=O)[C@@H](N)[C@@H](C)CC)C(C)C)C(C)C)[C@@H](C)CC)C(=O)N[C@@H](CCCCN)C(=O)N[C@H](C(=O)N[C@@H](CC(C)C)C(=O)N[C@@H](CC(C)C)C(=O)N[C@@H](CCC(=O)O)C(=O)N[C@@H](CCC(N)=O)C(=O)N[C@@H](CCC(=O)O)C(=O)N[C@@H](CCCCN)C(=O)N[C@@H](CCC(N)=O)C(=O)N[C@@H](CCC(=O)O)C(=O)N[C@@H](CCCCN)C(=O)N[C@@H](CCC(=O)O)C(=O)N[C@@H](CCCCN)C(=O)N[C@@H](CCC(N)=O)C(=O)N[C@@H](CCC(N)=O)C(=O)N[C@@H](C)C(=O)N[C@@H](CCC(=O)O)C(=O)N[C@H](C(=O)N[C@@H](CC(N)=O)C(=O)N[C@@H](C)C(=O)N[C@@H](CCC(N)=O)C(=O)N[C@H](C(=O)N[C@@H](CC(C)C)C(=O)N[C@@H](C)C(=O)N[C@@H](CCC(N)=O)C(=O)N[C@H](C(N)=O)C(C)C)[C@@H](C)CC)[C@@H](C)O)[C@@H](C)CC)C(=O)O [compound 2] (H-IVLSLDVPIKLK([γGlu-Palmitoyl])KILLEQEKQEKEKQQAETNAQILAQV-NH2; N-terminus assumed) | 0.01 nM | 0.01 nM | > 7600 µg/mL | – | – | – |
| CCCCCCCCCCCCCCCC(=O)N[C@@H](CCC(=O)NCCCC[C@H](NC(=O)[C@H](CC(C)C)NC(=O)[C@H](CCCCN)NC(=O)[C@@H](NC(=O)[C@@H]1CCCN1C(=O)[C@@H](NC(=O)[C@H](CC(=O)O)NC(=O)[C@H](CC(C)C)NC(=O)[C@H](CO)NC(=O)[C@H](CC(C)C)NC(=O)[C@@H](NC(=O)[C@@H](N)[C@@H](C)CC)C(C)C)C(C)C)[C@@H](C)CC)C(=O)N[C@@H](CCCCN)C(=O)N[C@H](C(=O)N[C@@H](CC(C)C)C(=O)N[C@@H](CC(C)C)C(=O)N[C@@H](CCC(=O)O)C(=O)N[C@@H](CCC(N)=O)C(=O)N[C@@H](CCC(=O)O)C(=O)N[C@@H](CCCCN)C(=O)N[C@@H](CCC(N)=O)C(=O)N[C@@H](CCC(=O)O)C(=O)N[C@@H](CCCCN)C(=O)N[C@@H](CCC(=O)O)C(=O)N[C@@H](CCCCN)C(=O)N[C@@H](CCC(N)=O)C(=O)N[C@@H](CCC(N)=O)C(=O)N[C@@H](C)C(=O)N[C@@H](CCC(=O)O)C(=O)N[C@@H](CCCCN)C(=O)N[C@@H](CC(N)=O)C(=O)N[C@@H](C)C(=O)N[C@@H](CCC(N)=O)C(=O)N[C@H](C(=O)N[C@@H](CC(C)C)C(=O)N[C@@H](C)C(=O)N[C@@H](CCC(N)=O)C(=O)N[C@H](C(N)=O)C(C)C)[C@@H](C)CC)[C@@H](C)CC)C(=O)O [compound 3] (H-IVLSLDVPIKLK([γGlu-Palmitoyl])KILLEQEKQEKEKQQAEKNAQILAQV-NH2) | 0.01 nM | – | > 8800 µg/mL | – | – | – |
| CC[C@H](C)[C@H](N)C(=O)N[C@H](C(=O)N[C@@H](CC(C)C)C(=O)N[C@@H](CO)C(=O)N[C@@H](CC(C)C)C(=O)N[C@@H](CC(=O)O)C(=O)N[C@@H](C(=O)N1CCC[C@H]1C(=O)N[C@H](C(=O)NCC(=O)N[C@@H](CC(C)C)C(=O)N[C@@H](CCCCNC(=O)COCCOCCNC(=O)COCCOCCNC(=O)CC[C@H](NC(=O)CCCCCCCCCCCCCCCCC(=O)O)C(=O)O)C(=O)N[C@@H](CCC(N)=O)C(=O)N[C@H](C(=O)N[C@@H](CC(C)C)C(=O)N[C@@H](CC(C)C)C(=O)N[C@@H](CCCCN)C(=O)N[C@@H](CCC(N)=O)C(=O)N[C@@H](CCC(=O)O)C(=O)N[C@@H](CCCNC(=N)N)C(=O)N[C@@H](CCC(N)=O)C(=O)N[C@@H](CCCCN)C(=O)N[C@@H](CCCCN)C(=O)NC(C)(C)C(=O)N[C@@H](CCCNC(=N)N)C(=O)N[C@@H](CCC(=O)O)C(=O)N[C@@H](CCC(N)=O)C(=O)N[C@@H](C)C(=O)N[C@@H](CCC(=O)O)C(=O)N[C@H](C(=O)N[C@@H](CC(N)=O)C(=O)N[C@@H](CCCCN)C(=O)N[C@@H](CCC(N)=O)C(=O)N[C@H](C(=O)N[C@@H](CC(C)C)C(=O)N[C@@H](C)C(=O)N[C@@H](CCC(N)=O)C(=O)N[C@H](C(N)=O)C(C)C)[C@@H](C)CC)[C@@H](C)O)[C@@H](C)CC)[C@@H](C)CC)C(C)C)C(C)C [compound 147] (H-IVLSLD[dV]PIGLK([AEEA-AEEA-γGlu-C18 diacid])QILLKQERQKK[Aib]REQAETNKQILAQV-NH2; N-terminus assumed) | 0.18 nM | 8.17 nM | – | 2.53 nM | > 1000 nM | 4.54% |
| CC[C@H](C)[C@H](N)C(=O)N[C@H](C(=O)N[C@@H](CC(C)C)C(=O)N[C@@H](CO)C(=O)N[C@@H](CC(C)C)C(=O)N[C@@H](CC(=O)O)C(=O)N[C@@H](C(=O)N1CCC[C@H]1C(=O)N[C@H](C(=O)NCC(=O)N[C@@H](CC(C)C)C(=O)N[C@@H](CCCCNC(=O)COCCOCCNC(=O)COCCOCCNC(=O)CC[C@H](NC(=O)CCCCCCCCCCCCCCCCC(=O)O)C(=O)O)C(=O)N[C@@H](CCC(N)=O)C(=O)N[C@H](C(=O)N[C@@H](CC(C)C)C(=O)N[C@@H](CC(C)C)C(=O)N[C@@H](CCCCN)C(=O)N[C@@H](CCC(N)=O)C(=O)N[C@@H](CCC(=O)O)C(=O)N[C@@H](CCCNC(=N)N)C(=O)N[C@@H](CCC(N)=O)C(=O)N[C@@H](CCCCN)C(=O)N[C@@H](CCCCN)C(=O)NC(C)(C)C(=O)N[C@@H](CCCNC(=N)N)C(=O)N[C@@H](CCC(=O)O)C(=O)N[C@@H](CCC(N)=O)C(=O)N[C@@H](C)C(=O)N[C@@H](CCC(=O)O)C(=O)N[C@@H](CCCCN)C(=O)N[C@@H](CC(N)=O)C(=O)N[C@@H](CCCCN)C(=O)N[C@@H](CCCNC(=N)N)C(=O)N[C@H](C(=O)N[C@@H](CC(C)C)C(=O)N[C@@H](CCC(=O)O)C(=O)N[C@@H](CCCNC(=N)N)C(=O)N[C@H](C(N)=O)C(C)C)[C@@H](C)CC)[C@@H](C)CC)[C@@H](C)CC)C(C)C)C(C)C [compound 151] (H-IVLSLD[dV]PIGLK([AEEA-AEEA-γGlu-C18 diacid])QILLKQERQKK[Aib]REQAEKNKRILERV-NH2; N-terminus assumed) | 0.08 nM | 3.87 nM | – | 0.49 nM | > 1000 nM | 9.07% |

— patent US12679878B2, “CRF2 receptor agonists and their use in therapy” (SANOFI, priority 2020, dated 2026)
